# Source: US20100173930A1, “Certain Chemical Entities, Compositions and Methods” (priority 2006, published 2010)
# Test system: SKM MYOFIBRIL
# Test: SKM myofibril AC1.4 (ATPase, PK/LDH coupled enzyme system); note: unit not given here
# Type: biochemical
# Conditions: screen at pCa=6.5
row,Structure (SMILES),SKM MYOFIBRIL AC1.4 (median)
1,"Oc1ccc(-c2nc3ccccn3c2NCc2ccc(F)cc2F)cc1 [4-(3-{[(2,4-difluorophenyl)methyl]amino}-4-hydroimidazo[1,2-a]pyridin-2-yl)phenol]",37.1035
2,"C[C@@H](Nc1c(-c2ccc(O)cc2)nc2ccccn12)C(C)(C)C [4-{3-[((1R)-1,2,2-trimethylpropyl)amino]-4-hydroimidazo[1,2-a]pyridin-2-yl}phenol]",15.0489
3,"Oc1ccccc1-c1nc2ccccn2c1NC1CCCCC1 [2-[3-(cyclohexylamino)-4-hydroimidazo[1,2-a]pyridin-2-yl]phenol]",8.1939
4,"Oc1ccccc1-c1nc2cnccn2c1NCc1ccc(F)cc1 [2-(3-{[(4-fluorophenyl)methyl]amino}-4-hydroimidazo[1,2-a]pyrazin-2-yl)phenol]",4.6013
5,"O=C(NCCO)c1ccc2nc(-c3ccccc3O)c(NCc3ccc(F)cc3)n2c1 [(3-{[(4-fluorophenyl)methyl]amino}-2-(2-hydroxyphenyl)(4-hydroimidazo[1,2-a]pyridin-6-yl))-N-(2-hydroxyethyl)carboxamide]",2.2384
6,"Cc1ccc2cc(-c3nc4cc(C)ccn4c3NCc3ccc(F)cc3)c(O)nc2c1 [3-(3-{[(4-fluorophenyl)methyl]amino}-7-methyl(4-hydroimidazo[1,2-a]pyridin-2-yl))-7-methylquinolin-2-ol]",38.7091
7,"Cc1cccn2c(NC3CCCC3)c(-c3ccccc3O)nc12 [2-[3-(cyclopentylamino)-8-methyl-4-hydroimidazo[1,2-a]pyridin-2-yl]phenol]",11.3023
8,"O=C(NCCO)c1ccc2nc(-c3ccccc3O)c(NCc3cccc(Cl)c3)n2c1 [(3-{[(3-chlorophenyl)methyl]amino}-2-(2-hydroxyphenyl)(4-hydroimidazo[1,2-a]pyridin-6-yl))-N-(2-hydroxyethyl)carboxamide]",1.3334
9,"CC(C)(O)c1ccc2nc(-c3ccccc3O)c(NCc3ccc(F)cc3)n2c1 [2-(3-{[(4-fluorophenyl)methyl]amino}-6-(1-hydroxy-isopropyl)-4-hydroimidazo[1,2-a]pyridin-2-yl)phenol]",4.1299
10,"Oc1ccc(-c2nc3ccc(-c4ccccc4)cn3c2NC2CCCC2)cc1 [4-[3-(cyclopentylamino)-6-phenyl-4-hydroimidazo[1,2-a]pyridin-2-yl]phenol]",22.1213
11,"COC(=O)c1ccc2nc(-c3ccccc3O)c(NCc3ccc(F)cc3)n2c1 [methyl 3-{[(4-fluorophenyl)methyl]amino}-2-(2-hydroxyphenyl)-4-hydroimidazo[1,2-a]pyridine-6-carboxylate]",4.201
12,"N#Cc1ccc2nc(-c3ccc(O)cc3)c(NC3CCCC3)n2c1 [3-(cyclopentylamino)-2-(4-hydroxyphenyl)-4-hydroimidazo[1,2-a]pyridine-6-carbonitrile]",46.9669
13,"CCC(C)(C)Nc1c(-c2cc3cc(C)ccc3nc2O)nc2ccccn12 [3-{3-[(1,1-dimethylpropyl)amino](4-hydroimidazo[1,2-a]pyridin-2-yl)}-6-methylquinolin-2-ol]",1.1087
14,"Oc1ccc(-c2nc3ccccn3c2NCc2cccc(Cl)c2)cc1 [4-(3-{[(3-chlorophenyl)methyl]amino}-4-hydroimidazo[1,2-a]pyridin-2-yl)phenol]",10.5567
15,"Cc1ccn2c(NCc3ccc(F)cc3)c(-c3ccc(O)cc3)nc2c1 [4-(3-{[(4-fluorophenyl)methyl]amino}-7-methyl-4-hydroimidazo[1,2-a]pyridin-2-yl)phenol]",44.5161
16,"Oc1ccc(-c2nc3ccccn3c2NCc2ccc(F)cc2)cc1 [4-(3-{[(4-fluorophenyl)methyl]amino}-4-hydroimidazo[1,2-a]pyridin-2-yl)phenol]",40.3674
17,"N#Cc1ccn2c(NCc3ccc(F)cc3)c(-c3ccc(O)cc3)nc2c1 [3-{[(4-fluorophenyl)methyl]amino}-2-(4-hydroxyphenyl)-4-hydroimidazo[1,2-a]pyridine-7-carbonitrile]",19.6705
